What was measured:
Liver carboxylesterase 1 = molecular target: T1, Liver carboxylesterase 1 (Homo sapiens, UniProt P23141)
T1 sequence (P23141 whole entry): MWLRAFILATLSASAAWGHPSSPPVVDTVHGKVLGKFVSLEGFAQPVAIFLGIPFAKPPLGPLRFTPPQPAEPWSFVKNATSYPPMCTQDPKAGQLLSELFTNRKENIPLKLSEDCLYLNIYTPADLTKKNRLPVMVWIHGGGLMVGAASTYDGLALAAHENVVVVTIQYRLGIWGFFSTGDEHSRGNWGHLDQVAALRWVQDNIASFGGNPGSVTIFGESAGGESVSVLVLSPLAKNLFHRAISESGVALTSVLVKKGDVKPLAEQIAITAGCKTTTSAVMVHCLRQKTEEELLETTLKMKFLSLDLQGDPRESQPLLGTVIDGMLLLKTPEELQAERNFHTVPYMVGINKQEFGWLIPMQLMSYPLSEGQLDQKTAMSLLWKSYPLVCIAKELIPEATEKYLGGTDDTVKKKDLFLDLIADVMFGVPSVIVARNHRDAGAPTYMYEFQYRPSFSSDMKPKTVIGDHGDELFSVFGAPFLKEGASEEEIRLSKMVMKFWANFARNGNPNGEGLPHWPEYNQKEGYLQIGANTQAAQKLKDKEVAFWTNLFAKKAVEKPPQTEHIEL

[1] = molecular target: T2, Neutral cholesterol ester hydrolase 1 (Homo sapiens, UniProt Q6PIU2); experiment: Inhibition of KIAA1363
T2 sequence (Q6PIU2 whole entry): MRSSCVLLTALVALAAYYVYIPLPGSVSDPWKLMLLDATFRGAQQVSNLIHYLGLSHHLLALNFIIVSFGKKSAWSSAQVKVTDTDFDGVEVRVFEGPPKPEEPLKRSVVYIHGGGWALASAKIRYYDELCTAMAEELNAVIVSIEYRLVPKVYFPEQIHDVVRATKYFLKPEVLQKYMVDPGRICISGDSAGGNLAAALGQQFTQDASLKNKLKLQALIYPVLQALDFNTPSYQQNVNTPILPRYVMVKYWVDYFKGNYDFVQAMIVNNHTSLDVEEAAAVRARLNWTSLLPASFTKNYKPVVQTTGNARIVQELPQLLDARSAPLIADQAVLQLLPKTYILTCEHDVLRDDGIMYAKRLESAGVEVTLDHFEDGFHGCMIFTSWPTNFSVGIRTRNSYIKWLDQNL

[2] = Selectivity for rat recombinant FAAH over KIAA1363
[3] = Selectivity for rat recombinant FAAH over TGH
[4] = molecular target: T3, Fatty-acid amide hydrolase 1 (Rattus norvegicus, UniProt P97612); experiment: Inhibition of rat recombinant FAAH expressed in Escherichia coli
T3 sequence (P97612 whole entry): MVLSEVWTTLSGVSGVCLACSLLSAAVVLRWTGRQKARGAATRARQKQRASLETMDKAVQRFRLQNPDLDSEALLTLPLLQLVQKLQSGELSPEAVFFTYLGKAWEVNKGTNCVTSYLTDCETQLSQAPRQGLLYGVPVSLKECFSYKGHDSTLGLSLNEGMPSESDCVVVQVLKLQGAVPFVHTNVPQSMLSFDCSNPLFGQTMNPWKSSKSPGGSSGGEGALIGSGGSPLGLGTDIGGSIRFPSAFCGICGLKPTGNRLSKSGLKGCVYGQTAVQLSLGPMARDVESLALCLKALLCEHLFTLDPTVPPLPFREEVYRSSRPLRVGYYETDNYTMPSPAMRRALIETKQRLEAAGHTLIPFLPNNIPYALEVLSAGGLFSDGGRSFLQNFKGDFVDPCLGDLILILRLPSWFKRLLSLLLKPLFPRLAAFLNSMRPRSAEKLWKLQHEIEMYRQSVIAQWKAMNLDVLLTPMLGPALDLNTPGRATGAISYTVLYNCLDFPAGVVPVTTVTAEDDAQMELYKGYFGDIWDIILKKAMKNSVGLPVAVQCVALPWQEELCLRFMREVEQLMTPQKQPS

| IC50 (Liver carboxylesterase 1) | IC50 [1] | Ratio IC50 [2] | Ratio IC50 [3] | IC50 [4] | Selectivity ratio [2] | Ki [4] | Structure (SMILES) |
| --- | --- | --- | --- | --- | --- | --- | --- |
| 1200 nM | > 100000 nM |  |  |  |  |  | O=C(CCc1ccc(-c2ccccc2)cc1)c1ncc(-c2ccccn2)o1 |
| 26000 nM | > 100000 nM | > 2500 | 650 | 40 nM |  |  | O=C(O)c1cccc(-c2cnc(C(=O)CCc3ccc(COc4ccccc4)cc3)o2)n1 |
| 26 nM | 64000 nM | 64000 | 26 | 1 nM | > 1000 |  | N#Cc1cnc(C(=O)CCc2ccc(-c3ccccc3)cc2)o1 |
| > 100000 nM | > 100000 nM | > 17000 | > 17000 | 6 nM |  |  | O=C(O)c1cccc(-c2cnc(C(=O)CCc3ccc(-c4ccccc4)cc3)o2)n1 |
| 2400 nM | > 100000 nM | > 1250 | 30 | 80 nM |  | 41 nM | O=C(O)c1cnc(C(=O)CCc2ccc(Oc3ccccc3)cc2)o1 |
| 2000 nM | > 100000 nM | > 50000 | 1000 | 2 nM |  |  | O=C(CCc1ccc(COc2ccccc2)cc1)c1ncc(-c2ccccn2)o1 |
| 200 nM | > 100000 nM |  |  | 2 nM |  |  | O=C(CCc1ccc(Oc2ccccc2)cc1)c1ncc(-c2ccccn2)o1 |
| 90000 nM | > 100000 nM | > 550 | 500 | 180 nM |  |  | O=C(CCc1ccc(COc2ccccc2)cc1)c1ncc(-c2cccc(-c3nnn[nH]3)n2)o1 |
| > 100000 nM | > 100000 nM | > 200 | > 200 | 500 nM |  |  | O=C(CCCCCCc1ccccc1)c1ncc(-c2cccc(-c3nnn[nH]3)n2)o1 |
| 17000 nM | > 100000 nM | > 5000 | 850 | 20 nM |  | 10 nM | O=C(O)c1cnc(C(=O)CCc2ccc(-c3ccccc3)cc2)o1 |
| 37000 nM | > 100000 nM | > 2000 | 740 | 50 nM |  | 22 nM | O=C(O)c1cnc(C(=O)CCc2ccc(COc3ccccc3)cc2)o1 |
| > 100000 nM | > 100000 nM | > 5000 | > 5000 | 20 nM |  |  | O=C(O)c1cccc(-c2cnc(C(=O)CCc3ccc(Oc4ccccc4)cc3)o2)n1 |
| 7000 nM | > 100000 nM | > 1000 | 70 | 100 nM |  | 25 nM | O=C(CCc1ccc(-c2ccccc2)cc1)c1ncc(-c2cccc(-c3nnn[nH]3)n2)o1 |
| 2000 nM |  | > 50000 | 1000 | 2 nM |  |  | O=C(O)c1cnc(C(=O)CCCCCCc2ccccc2)o1 |

| Structure (SMILES) | IC50 (Liver carboxylesterase 1) | IC50 [1] | Ratio IC50 [2] | Ratio IC50 [3] | IC50 [4] | Selectivity ratio [2] | Ki [4] |
| --- | --- | --- | --- | --- | --- | --- | --- |
| O=C(O)c1cccc(-c2cnc(C(=O)CCCCCCc3ccccc3)o2)n1 |  |  | > 1000 | > 1000 | 100 nM |  |  |

Reference: ChEMBL document CHEMBL1142267, “Optimization of alpha-ketooxazole inhibitors of fatty acid amide hydrolase” (J Med Chem, 2008)
